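Step 1: Grow cells in 96-well plates. Step 2: Expose to compound for 48 hours at 5 concentrations. Step 3: Interpolate endpoints linearly; if unreached, use highest concentration. At the GI50, growth is halved. TGI marks complete inhibition of growth.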
Columns and labels:
Assay in all cases: DTP human tumour cell line panel, 48 h
HOP-62 NSCLC = tested on: HOP-62 NSCLC
CCRF-CEM leukemia = tested on: CCRF-CEM leukemia
SK-MEL-2 melanoma = tested on: SK-MEL-2 melanoma
HCT-116 colon = tested on: HCT-116 colon
COLO 205 colon = tested on: COLO 205 colon
MALME-3M melanoma = tested on: MALME-3M melanoma
HL-60(TB) leukemia = tested on: HL-60(TB) leukemia
EKVX NSCLC = tested on: EKVX NSCLC
SNB-19 CNS = tested on: SNB-19 CNS
SF-268 CNS = tested on: SF-268 CNS

Compound	TGI (HOP-62 NSCLC) [µM]	TGI (CCRF-CEM leukemia) [µM]	TGI (SK-MEL-2 melanoma) [µM]	TGI (HCT-116 colon) [µM]	TGI (COLO 205 colon) [µM]	TGI (MALME-3M melanoma) [µM]	TGI (HL-60(TB) leukemia) [µM]	TGI (EKVX NSCLC) [µM]	TGI (SNB-19 CNS) [µM]	TGI (SF-268 CNS) [µM]	GI50 (HOP-62 NSCLC) [µM]	GI50 (CCRF-CEM leukemia) [µM]	GI50 (SK-MEL-2 melanoma) [µM]	GI50 (HCT-116 colon) [µM]	GI50 (COLO 205 colon) [µM]	GI50 (MALME-3M melanoma) [µM]	GI50 (HL-60(TB) leukemia) [µM]	GI50 (EKVX NSCLC) [µM]	GI50 (SNB-19 CNS) [µM]	GI50 (SF-268 CNS) [µM]
CN(C=O)/C=C/c1cc(O)ccc1O	> 71.5	54.7	59.5	48.9	45.4	> 63.3	40.8	63.8	> 100	48.5	–	–	–	–	–	–	–	–	–	–
CC/C=C\C/C=C\C[C@H](O)C/C=C1/C(=O)C=C[C@@H]1C/C=C\CCCC(=O)OC	4.1	1.77	3.79	2.29	3.78	4.88	6.06	10.9	13.7	11	1.65	0.315	1.72	0.841	1.77	1.92	1.71	3.15	3.05	2.57
CC(=O)C1C(=O)N(C(C)C)C[C@@H]2CCC(=O)C[C@H]12 (some centres undefined)	> 100	> 100	> 100	> 100	> 100	> 100	> 100	> 100	> 100	> 100	–	–	–	–	–	–	–	–	–	–
CNC(=O)CN(CC(N)=O)C(N)=O	> 100	> 100	> 100	–	> 100	> 100	> 100	> 100	> 100	> 100	–	–	–	–	–	–	–	–	–	–
O=C1CN(/N=C/c2ccc(-c3ccc(F)cc3)o2)C(=O)N1	> 100	> 100	> 100	> 100	> 100	> 100	> 100	> 100	> 100	> 100	–	–	–	–	–	–	–	–	–	–
CCOc1ccc(C(CN2CCOCC2)C(C)=O)cc1OC (centres undefined)	40.4	26.1	28.4	43.5	19.6	37.5	17	50.3	32	41	–	–	–	–	–	–	–	–	–	–
CC1CC2(C)CC(=O)C1C1C(=O)N(CCN3CCCCC3)C(=O)C12 (centres undefined)	> 100	> 100	> 100	> 100	> 100	> 100	> 100	> 100	> 100	> 100	> 100	> 100	> 100	> 100	> 100	> 100	> 100	> 100	> 100	> 100
COc1ccc(OC)c2c3c(ccc12)C(c1ccccc1)OC3=O (centres undefined)	> 100	> 100	> 100	> 100	> 100	> 100	> 100	> 100	> 100	> 100	–	–	–	–	–	–	–	–	–	–
COC(=O)c1c(C)nc(C)c(NO)c1-c1ccccc1C(F)(F)F	> 100	> 100	> 100	29.9	70.2	32.8	> 100	> 100	> 100	> 100	–	–	–	–	–	–	–	–	–	–
CCOC(=O)C(NC(=O)c1[nH]cnc1/N=N/N(C)C)C(C)C (centres undefined)	> 100	> 100	> 100	> 100	> 100	> 100	> 100	> 100	> 100	> 100	–	–	–	–	–	–	–	–	–	–
CC1CCC2N(C1)CC1C3(O)CC45OC6(O)C(O)CCC4(C)C6CCC5C3(O)CC(O)C1(O)C2(C)O (centres undefined)	> 100	> 100	> 100	> 100	> 100	> 100	> 100	> 100	> 100	> 100	–	–	–	–	–	–	–	–	–	–
CC(NC(=O)c1ccccc1)(C(=O)O)C(=O)O	> 100	> 100	> 100	> 100	> 100	> 100	> 100	> 100	> 100	> 100	–	–	–	–	–	–	–	–	–	–
CC(=O)Oc1ccc(/C=N/NC(N)=S)nc1	77.6	9.43	> 100	> 100	> 100	43.5	8.44	> 100	> 100	8.59	6.15	2.58	77	4.48	31	4.96	1.74	10.8	8.77	1.91
COc1ccc(CCN=C2CCC(C(=O)NCCc3ccc(OC)c(OC)c3)N2)cc1OC (centres undefined)	> 100	> 100	> 100	> 100	> 100	> 100	> 100	> 100	> 100	> 100	–	–	–	–	–	–	–	–	–	–
CN1CCc2c1nc(-c1ccc([N+](=O)[O-])cc1)c1c2N(C)CC1	> 100	> 100	> 100	> 100	> 100	> 100	> 100	> 100	> 100	> 100	–	–	–	–	–	–	–	–	–	–
O=C(NCCCCCCCNC(=O)OCc1ccc2c(Cl)cc(Cl)c(O)c2n1)OCc1ccc2c(Cl)cc(Cl)c(O)c2n1	3.22	1.32	2.78	0.63	2	2.53	1.97	3.22	3.06	2.78	1.4	0.282	1.33	0.241	0.564	1.2	0.47	1.55	1.59	1.28
O=C(c1ccc(Cl)cc1)C1OC12C(=O)Nc1ccccc12 (centres undefined)	> 73.3	4.71	22.3	13.6	8.53	18.8	1.58	33.4	86.7	40.2	–	–	–	–	–	–	–	–	–	–
COc1cccc(/C=C/C(=O)c2cc3c(N)c(C(=O)Nc4cccc5ccccc45)sc3nc2C)c1	3.21	> 50	> 50	1.6	34.2	> 50	2.61	> 50	> 50	> 50	1.14	0.256	1.71	0.619	1.71	1.96	1.06	1.87	1.69	1.89

Compound	TGI (HOP-62 NSCLC) [µM]	TGI (CCRF-CEM leukemia) [µM]	TGI (SK-MEL-2 melanoma) [µM]	TGI (HCT-116 colon) [µM]	TGI (COLO 205 colon) [µM]	TGI (MALME-3M melanoma) [µM]	TGI (HL-60(TB) leukemia) [µM]	TGI (EKVX NSCLC) [µM]	TGI (SNB-19 CNS) [µM]	TGI (SF-268 CNS) [µM]	GI50 (HOP-62 NSCLC) [µM]	GI50 (CCRF-CEM leukemia) [µM]	GI50 (SK-MEL-2 melanoma) [µM]	GI50 (HCT-116 colon) [µM]	GI50 (COLO 205 colon) [µM]	GI50 (MALME-3M melanoma) [µM]	GI50 (HL-60(TB) leukemia) [µM]	GI50 (EKVX NSCLC) [µM]	GI50 (SNB-19 CNS) [µM]	GI50 (SF-268 CNS) [µM]
CCCCCCCCCCCCCc1nn[nH]n1	32.8	41.7	33.1	31.7	36.6	33.5	39.9	52	33	40.5	–	–	–	–	–	–	–	–	–	–
S=c1nc(-c2ccnc(-c3nc(=S)[nH][nH]3)c2)[nH][nH]1	> 100	> 100	> 100	> 100	> 100	> 100	> 100	> 100	> 100	> 100	–	–	–	–	–	–	–	–	–	–
CCOc1cc(-c2ccc[nH]2)[nH]c1/C=C1\N=C(C)C(C(=O)OC)=C1C	0.294	1.99	0.0893	1.08	0.304	4.3	1.69	2.3	2.91	1.81	0.0361	–	0.0256	0.0188	0.031	0.216	0.0235	0.235	0.239	0.0526
COc1cnc2cc(C(=O)O)c3ccccc3c2c1	> 100	> 100	> 100	> 100	> 100	> 100	> 100	> 100	> 100	> 100	–	–	–	–	–	–	–	–	–	–
Oc1ccc(Cl)cc1Cc1cc(Cl)ccc1O	7.56	9.79	5.02	7.08	26.8	6.35	6.05	8.84	15	11.3	2.39	2.43	2.21	2.6	13.7	2.55	2.42	2.65	3.52	2.81
Cc1cc(Cl)ccc1NS(=O)(=O)c1ccc(-c2cnc(C3CC3)o2)cc1	21.5	38.3	22	11.9	4.44	26.7	2.89	28.5	18.7	23	0.556	0.239	0.677	0.3	0.36	0.567	0.202	0.411	0.395	2.98
Nc1ccc2c(c1)c(N)nn2C(=O)Nc1ccc(Cc2ccccc2)cc1	27	18.8	48.5	20.8	26.5	89.8	17.2	36.7	27.3	30.7	11.2	2.07	26.1	6.79	13.1	18	3.46	14	13.9	13
Cc1nc(N)nc2ccccc12	> 100	> 100	> 100	> 100	> 100	> 100	> 100	> 100	> 100	> 100	–	–	–	–	> 100	–	–	–	–	–
COc1ccccc1NC(=O)C(CC(C(=O)Nc1ccccc1OC)/C(C)=N/Nc1ccc([N+](=O)[O-])cc1[N+](=O)[O-])/C(C)=N/Nc1ccc([N+](=O)[O-])cc1[N+](=O)[O-] (centres undefined)	> 100	> 100	> 100	> 100	> 100	> 100	> 100	> 100	> 100	> 100	–	–	–	–	–	–	–	–	–	–
COC(=O)CC(C(C(C)=O)C(=O)OCc1ccccc1)N1C(=O)OCC1c1ccccc1 (centres undefined)	> 100	> 100	> 100	> 100	> 100	> 100	> 100	> 100	> 100	> 100	–	–	–	–	–	–	–	–	–	–
COc1cc(/C=C(\C#N)C(N)=C(C#N)C#N)cc(O)c1O	> 100	> 81.1	> 100	> 100	> 100	> 100	> 81.5	> 100	> 100	> 100	–	–	–	–	–	–	–	–	–	–
Nc1ccc(S(=O)(=O)Nc2cnc3c(Cl)cccc3n2)cc1	188	> 657	707	609	193	> 750	637	712	620	704	24.6	–	–	14.7	> 74.3	–	> 75	–	> 77.5	–
Cc1nc(-n2nc(-c3ccccc3)cc2-c2ccccc2)sc1C(/C=C/c1ccc([N+](=O)[O-])cc1)=N/NC(=O)c1ccncc1	35	> 100	66.1	21.8	58.4	> 100	36.7	> 100	> 100	> 100	–	–	–	–	–	–	–	–	–	–
COc1cc2cc3c4c(cc(OC)c(OC)c4c2cc1OC)CCN3C(=O)CCC(=O)NCCCN(C)C	> 100	88.2	41.9	> 100	> 100	> 100	56.9	> 100	> 100	> 100	–	–	–	–	–	–	–	–	–	–
O=C(Nc1cccc(NC(=O)c2cc(=O)c3ccccc3o2)n1)c1cc(=O)c2ccccc2o1	> 100	> 100	> 100	> 100	> 100	> 100	> 100	> 100	> 100	> 100	–	–	–	–	–	–	–	–	–	–
COc1ccc2nc3ccccc3c(NCCCCN(C)CCCl)c2c1	0.546	0.229	0.666	0.303	0.0789	1.06	0.0435	3.05	0.707	0.756	–	–	–	–	–	–	–	–	–	–
COC1(OC)c2no[n+]([O-])c2C(OC)(OC)c2c1no[n+]2[O-]	35.8	60.4	42	24.6	28.5	29.4	87.6	41.6	59.5	73.3	–	–	–	–	–	–	–	–	–	–
